Patent publication US12121027B2, “Herbicidal combinations” (UPL LTD, priority 2018, dated 2024)

Legend:
Chenopodium album = experiment: Herbicidal mixture trial, percentage weed control; type: in vivo; settings: Pinoxaden 46 g/ha, Metribuzin 280 g/ha, 2,4-D 500 g/ha
Method: (§1) Trials were carried out for evaluating the herbicidal mixtures of the invention on different weeds. The percentage control was calculated from the observed percent weed coverage data after 15 DAA and 30 DAA.

Phalaris minor = experiment: Herbicidal mixture trial, percentage weed control; type: in vivo; settings: Pinoxaden 46 g/ha, Metribuzin 280 g/ha, 2,4-D 500 g/ha
Method: as §1

[1] = 15 DAA, combination 64 g/ha + 725 g/ha + 280 g/ha
[2] = 30 DAA, combination 64 + 725 + 280

Structure (SMILES): O=C(O)COc1ccc(Cl)cc1Cl [2,4-D]
- percentage control, Actual (Chenopodium album; [1]): 90.3%
- percentage control, Actual (Chenopodium album; [2]): 86%
- percentage control, Actual (Phalaris minor; [1]): 29%
- percentage control, Actual (Phalaris minor; [2]): 30.2%

Structure (SMILES): CSc1nnc(C(C)(C)C)c(=O)n1N [Metribuzin]
- percentage control, Actual (Chenopodium album; [1]): 78%
- percentage control, Actual (Chenopodium album; [2]): 88%
- percentage control, Actual (Phalaris minor; [1]): 67.4%
- percentage control, Actual (Phalaris minor; [2]): 73.8%

Structure (SMILES): CCc1cc(C)cc(CC)c1-c1c(OC(=O)C(C)(C)C)n2n(c1=O)CCOCC2 [Pinoxaden, N 8-(2,6-diethyl-p-tolyl)-1,2,4,5-tetrahydro-7-oxo-7H-pyrazolo[1,2-d][1,4,5]oxadiazepin-9-yl 2,2-dimethylpropionate]
- percentage control, Actual (Chenopodium album; [1]): 68%
- percentage control, Actual (Chenopodium album; [2]): 85.3%
- percentage control, Actual (Phalaris minor; [1]): 53.4%
- percentage control, Actual (Phalaris minor; [2]): 73.6%
